Source: patent US10448639B2, “Fungicidal pyrazoles” (FMC CORPORATION, priority 2009, dated 2019)

Experiments:
[1] = tested on: Puccinia recondita f. sp. tritici; assay: Test I: wheat leaf rust, preventive spray on wheat seedlings, visual disease rating; settings: wheat leaf rust, preventive; 100 = 100% disease control, 0 = no control relative to controls
Botrytis cinerea = assay: Test B: tomato Botrytis, preventive spray on tomato seedlings, visual disease rating; settings: tomato Botrytis; 100 = 100% disease control, 0 = no control relative to controls
Septoria tritici = assay: Test G: wheat leaf blotch, preventive spray on wheat seedlings, visual disease rating; settings: wheat leaf blotch; 100 = 100% disease control, 0 = no control relative to controls
Description: General protocol for preparing test suspensions for Tests A-J: the test compounds were first dissolved in acetone in an amount equal to 3% of the final volume and then suspended at the desired concentration (in ppm) in acetone and purified water (50/50 mix by volume) containing 250 ppm of the surfactant Trem® 014 (polyhydric alcohol esters). The resulting test suspensions were then used in Tests A-J. Spraying a 200 ppm test suspension to the point of run-off on the test plants was the equivalent of a rate of 500 g/ha. Unless otherwise indicated, the rating values indicate a 200 ppm test suspension was used. (An asterisk “*” next to the rating value indicates a 40 ppm test suspension was used.)
The test suspension was sprayed to the point of run-off on wheat seedlings. The following day the seedlings were inoculated with a spore suspension of Septoria tritici (the causal agent of wheat leaf blotch) and incubated in saturated atmosphere at 24° C. for 48 h. and then the seedlings were moved to a growth chamber at 20° C. for 19 additional days, after which time visual disease ratings were made.

Alternaria solani = assay: Test C: tomato early blight, preventive spray on tomato seedlings, visual disease rating; settings: tomato early blight; 100 = 100% disease control, 0 = no control relative to controls
[2] = tested on: Erysiphe graminis f sp. tritici; assay: Test J: wheat powdery mildew, preventive spray on wheat seedlings, visual disease rating; settings: wheat powdery mildew; 100 = 100% disease control, 0 = no control relative to controls
Septoria nodorum = assay: Test F: Septoria glume blotch, preventive spray on wheat seedlings, visual disease rating; settings: Septoria glume blotch; 100 = 100% disease control, 0 = no control relative to controls
[3] = tested on: Puccinia recondita f. sp. tritici; assay: Test H: wheat leaf rust, curative spray on inoculated wheat seedlings, visual disease rating; settings: wheat leaf rust, curative; 100 = 100% disease control, 0 = no control relative to controls

SMILES	Test I rating (% disease control) [1] [%]	Test B rating (% disease control) (Botrytis cinerea) [%]	Test G rating (% disease control) (Septoria tritici) [%]	Test C rating (% disease control) (Alternaria solani) [%]	Test J rating (% disease control) [2] [%]	Test F rating (% disease control) (Septoria nodorum) [%]	Test H rating (% disease control) [3] [%]
Cc1nn(C)c(Nc2ccc(F)cc2F)c1-c1ccccc1C(F)(F)F [compound 238]	9	99	0	0	43	0	53
Cc1nn(C)c(Nc2c(F)cc(F)cc2F)c1-c1ccccc1C(F)(F)F [compound 239]	68	99	67	95	100	0	0
COc1cc(F)c(Nc2c(-c3ccccc3C(F)(F)F)c(C)nn2C)c(F)c1 [compound 240]	99	100	99	99	100	0	0
Cc1nn(C)c(Nc2ncccc2Cl)c1-c1c(F)cc(F)cc1F [compound 241]	100	99	100	99	100	0	97
COc1ccc(Nc2c(-c3ccc(F)cc3F)c(C)nn2C)c(Cl)c1 [compound 242]	91	99	100	37	100	0	0
Cc1nn(C)c(Nc2ccc(Cl)cc2Cl)c1-c1ccc(F)cc1F [compound 243]	97	100	100	64	100	0	0
COc1ccc(F)c(Nc2c(-c3ccc(F)cc3F)c(C)nn2C)c1 [compound 244]	0	82	91	0	96	0	0
Cc1nn(C)c(Nc2cc(Cl)ccc2Cl)c1-c1ccc(F)cc1F [compound 245]	68	90	97	0	93	0	0
Cc1nn(C)c(Nc2ccc(C#N)cc2F)c1-c1ccc(F)cc1F [compound 246]	80	99	100	51	100	0	0
Cc1nn(C)c(Nc2c(F)cccc2F)c1-c1c(F)cccc1F [compound 247]	99	100	100	99	100	60	0
Cc1nn(C)c(Nc2c(F)cc(F)cc2F)c1-c1ccccc1Br [compound 248]	99	99	100	26	100	73	0
COc1cc(F)c(-c2c(C)nn(C)c2Oc2ccc(C)c(OC)c2)c(F)c1 [compound 249]	96	40	99	0	100	0	0
Cc1ccc(Oc2c(-c3c(F)cc(F)cc3F)c(C)nn2C)cc1C#N [compound 250]	86	98	77	0	100	0	0
Cc1nn(C)c(Nc2ncc(Cl)cc2Cl)c1-c1ccccc1C(F)(F)F [compound 251]	86	99	98	0	100	0	0
Cc1nn(C)c(Nc2ncc(Cl)cc2Cl)c1-c1c(F)cccc1Cl [compound 252]	100	100	100	97	100	0	0
Cc1nn(C)c(Nc2ccc(F)cc2Cl)c1-c1c(F)cccc1C(F)(F)F [compound 253]	0	99	0	0	76	0	0
Cc1nn(C)c(Nc2ccc(F)cc2)c1-c1c(F)cccc1C(F)(F)F [compound 254]	0	100	84	0	64	0	0
Cc1nn(C)c(Nc2ccc(F)cc2F)c1-c1c(F)cccc1C(F)(F)F [compound 255]	0	100	0	0	39	0	0
Cc1nn(C)c(Nc2c(F)cccc2F)c1-c1ccc(F)cc1F [compound 256]	99	99	100	99	100	96	0
COc1cc(F)c(Nc2c(-c3c(F)cccc3F)c(C)nn2C)c(F)c1 [compound 257]	97	100	100	99	98	0	0
COc1cc(F)c(-c2c(C)nn(C)c2Oc2ccc(Br)c(C#N)c2)c(F)c1 [compound 258]	68	41	89	9	90	0	0
COc1cc(F)c(-c2c(C)nn(C)c2Oc2ccc(C)c(C#N)c2)c(F)c1 [compound 259]	86	98	100	9	97	0	0
Cc1nn(C)c(Oc2ncc(C(F)(F)F)cc2F)c1-c1ccc(F)cc1Br [compound 260]	0	0	0	0	0	0	0
Cc1nn(C)c(Oc2ncc(C(F)(F)F)cc2Cl)c1-c1ccc(F)cc1Br [compound 261]	0	0	0	0	47	0	0
Cc1nn(C)c(Nc2c(F)cc(F)cc2F)c1-c1c(F)cccc1C(F)(F)F [compound 262]	68	99	0	51	99	0	0
